Experimental findings from the METLIN SMRT retention time set (Domingo-Almenara et al. 2019) are described below.

The structures appear in SMILES notation.

The series is described as follows: gradient 5% acetonitrile 3 min, to 50% in 2 min, to 85% in 15 min, held 3 min, 100 µL/min. As to conditions: column: Zorbax Extend-C18 2.1 x 50 mm; eluents: water / acetonitrile, 0.1% formic acid. Put shortly:
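The system's dead and dwell volumes were 40 μL and 900 μL, with a Zorbax Extend-C18 column (2.1 × 50 mm, 1.8 μm) run at 100 μL/min in water and acetonitrile containing 0.1% formic acid each. Pure standards were analyzed in mixtures of ~100 molecules by HPLC–quadrupole time-of-flight mass spectrometry in positive and negative ionization mode. Retention time was assigned from computationally picked, manually inspected adduct peaks.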
In turn, `CCNC(=O)N1[C@H]2CC[C@@H]1c1cnc(-c3ccc(F)cc3)nc1C2` gave an RP-LC retention time of 768 s.

The compound `Cn1nc2n(c1=O)CCN(S(=O)(=O)c1ccccc1C(F)(F)F)CC2` registered an RP-LC retention time of 675 s.

The compound `CCc1ccc(OCC(=O)Nc2nc(-c3ccc(F)cc3F)cs2)cc1` returned an RP-LC retention time of 1260 s.

With `Cc1ccccc1-n1c(=O)c2sccc2n(Cc2nc(-c3ccc(OC(C)C)cc3)no2)c1=O`, the RP-LC retention time was determined as 1120 s.

For the compound `CC1CCC(NC(=O)C2c3ccccc3C(=O)N2CCCN2CCOCC2)CC1` (stereo not given), the RP-LC retention time turned out to be 640 s.

The compound `Cc1nc(NC2CCCCC2)sc1C(=O)Nc1ccc(F)cc1F` came in with an RP-LC retention time of 855 s.

With `Cc1ccc(-n2nc(N3CCN(C(=O)CC(C)C)CC3)ccc2=O)cc1C`, the RP-LC retention time turned out to be 831 s.

On to `CCCn1cc(C(=O)NCc2ccncc2)c2cccnc21`, for which the RP-LC retention time is 572 s.

Compound `O=C(NCc1ccccc1)C1=C2CCCN2c2ccc(F)cc2S1(=O)=O` came in with an RP-LC retention time of 836 s.

`CCC(C)NC(=O)NC1CCN(C2=NS(=O)(=O)C(c3ccc(Cl)cc3)=C2C)CC1` (stereo not given) yielded an RP-LC retention time of 883 s.

In turn, `CC(C)C1c2nccn2CCCN1C(=O)CCn1cccn1` (stereo not given) registered an RP-LC retention time of 574 s.

Take `Cc1ccc2c(Nc3ccc(S(N)(=O)=O)cc3)c(C(=O)N3CCCCCC3)cnc2n1`: the RP-LC retention time came out at 595 s.

`c1ccc(-c2nc3nccc(-c4cccc5ccccc45)n3n2)cc1`: the RP-LC retention time is 995 s.

`Cc1ccc(C(=O)NC2CCN(c3cc(-c4cccs4)[nH]n3)C2)cc1` (stereo not given) came in with an RP-LC retention time of 733 s.

In the case of `Cc1ccc(NC(=O)c2cccn2Cc2noc(C)n2)c(Br)c1`, the RP-LC retention time was 942 s.

The compound `CCOC(=O)c1ccc(NC(=O)CC2Sc3ncnn3C2=O)cc1` (stereo not given) yielded an RP-LC retention time of 642 s.

`CCC(C)NC(=O)C1CCCN(c2cnc3nccnc3c2)C1` (stereo not given) displayed an RP-LC retention time of 608 s.

`Cc1nc(-c2cn(C(C)C)c3ncccc23)sc1C(=O)N1CCN(C(C)C)CC1` showed an RP-LC retention time of 622 s.

The compound `Cc1cccc(N2CCN(Cc3nc(-c4ccc(N5CCCC5)nc4)no3)CC2)c1C` yielded an RP-LC retention time of 787 s.

Consider `COc1ccc(S(=O)(=O)CCC(=O)Nc2sc3c(c2C(N)=O)CCC(C)C3)cc1` (stereo not given), for which the RP-LC retention time came to 793 s.

Compound `OCC1O[C@H](O)C(Cl)C(O)C1O` (stereo not given in full) gave an RP-LC retention time of 658 s.

Compound `CC(=O)Cc1nsc(NC(=O)c2cc(-c3cccc(C(F)(F)F)c3)oc2C)n1` returned an RP-LC retention time of 657 s.

Take `Cn1cnc(S(=O)(=O)N2CCC(C(=O)Nc3cccc(C#N)c3)CC2)c1`: the RP-LC retention time turned out to be 674 s.

The compound `Cc1cc(N2CCCCC2)nc(N2CCN(C(=O)c3ccc(C(C)(C)C)cc3)CC2)n1` returned an RP-LC retention time of 855 s.

Take `CS(=O)(=O)N1CCN=C1SCc1ccc(Cl)c(Cl)c1`: the RP-LC retention time was 889 s.

`CCNc1cc(N2CCC(CCC(=O)O)CC2)ncn1`: the RP-LC retention time stood at 576 s.

Take `O=C(NCc1ccc(F)cc1Cl)c1csc(C(=O)N2CCCC2)n1`: the RP-LC retention time turned out to be 864 s.

With `COc1ccc(-c2csc(NC(=O)c3ccc([N+](=O)[O-])cc3)n2)cc1`, the RP-LC retention time was found to be 1070 s.

Compound `O=C(NCCc1c[nH]c2ccc(Cl)cc12)Nc1ccccc1` had an RP-LC retention time of 879 s.

`CN(C)c1ccc(C(=O)NC2CCN(c3cc(-c4cccs4)[nH]n3)C2)cc1` (stereo not given) came in with an RP-LC retention time of 721 s.

On to `CCc1nc2cccnc2n1CCN1CCN(C(=O)Nc2ccc(C)c(Cl)c2)CC1`, for which the RP-LC retention time was determined as 742 s.

The compound `Cc1ccc(C)c(N2CCN(C(=O)C3CCN(C(=O)C4Sc5ccccc5NC4=O)CC3)CC2)c1` (stereo not given) registered an RP-LC retention time of 944 s.

Regarding `COc1ccc(NC(=O)NC2CCN(c3ccccc3)C2=O)cc1OC` (stereo not given), the RP-LC retention time was determined as 683 s.

For the compound `Cc1onc(-c2cccnc2)c1C(=O)Nc1ccc(Br)cc1F`, the RP-LC retention time was determined as 798 s.

Regarding `COc1cccc(N2CCN(C(=O)C3CCN(c4ncnc5c4oc4ccccc45)CC3)CC2)c1`, the RP-LC retention time turned out to be 794 s.

As for `CC(C)NC(=O)C1CCCN(c2nc3ncn(CC(=O)Nc4cccc(Cl)c4)c(=O)c3s2)C1` (stereo not given), the RP-LC retention time came out at 738 s.

In the case of `CCOc1ccccc1C(=O)N1CCc2[nH]cnc2C12CCCCC2`, the RP-LC retention time stood at 641 s.

In the case of `CCOc1ccc(CNC(=O)CN2C(=O)CSc3cccn3-c3ccccc32)cc1`, the RP-LC retention time stood at 914 s.

Turning to `COc1ccc(Cl)cc1NC(=O)c1cc(C)n2nccc2n1`, the RP-LC retention time was 942 s.

For `COc1ccc(C(=O)Nc2nc(CC(=O)Nc3ccc4c(c3)OCCO4)cs2)cc1`, the RP-LC retention time worked out at 754 s.

With `CCn1c(SC)nnc1-c1nn(C)c2c1CN(C(=O)c1ccc(F)c(F)c1)CC2`, the RP-LC retention time is 804 s.

For `COC(=O)c1ccc(CSc2nnc(NC(=O)c3cc(C)on3)s2)o1`, the RP-LC retention time is 737 s.

For `Cc1cc(C(=O)NC(C)c2ccccc2)n(-c2ccccc2)n1` (stereo not given), the RP-LC retention time came to 850 s.

For `CCC(C(=O)Nc1c(-c2ccccc2)nc2cc(C)ccn12)c1ccccc1` (stereo not given), the RP-LC retention time amounted to 939 s.

Compound `Cc1cc(C)c2c(N3CCCC3)nc(C(=O)Nc3ccccc3C)nc2n1` registered an RP-LC retention time of 671 s.

For the compound `Cc1cccc(-n2c(=O)c3sccc3n(Cc3nc(-c4cccc(Br)c4)no3)c2=O)c1`, the RP-LC retention time turned out to be 1130 s.

Turning to `CCc1cc(C(=O)Nc2cc(C)cc(C)c2)nc2ccnn12`, the RP-LC retention time was found to be 1140 s.

`CC(C)c1ccc(S(=O)(=O)N2C[C@@H](F)C[C@H]2C(=O)N2CCCCC2)cc1` returned an RP-LC retention time of 930 s.

In turn, `CCC(=O)Nc1ccc(-n2cnc(C(=O)N3CCN(c4cc(C)ccc4C)CC3)c2)nc1` showed an RP-LC retention time of 863 s.

On to `Cc1oc(-c2[nH]ncc2C(=O)N(C)C)cc1S(=O)(=O)Nc1ccc(F)c(Cl)c1`, for which the RP-LC retention time stood at 740 s.

As for `CN(C)[C@@H]1CN(Cc2ccccc2C#N)C[C@H]1CO`, the RP-LC retention time is 518 s.

In turn, `CCC(=O)N1CCc2cc(-c3ccc(C(=O)NCCCN4CCCC4=O)cc3)ccc21` registered an RP-LC retention time of 712 s.

In the case of `COc1cc(OC)c(NC(=O)Cn2c(=O)n(-c3ccc(C)cc3)c(=O)c3c2cc(C)n3C)cc1Cl`, the RP-LC retention time amounted to 904 s.

In turn, `Cc1ccc(Cn2nc3c(S(=O)(=O)N4CCOCC4)cccn3c2=O)cc1` returned an RP-LC retention time of 774 s.

`O=C(C(=O)N1CCN(c2ccc(F)cc2)CC1)c1ccc[nH]1` gave an RP-LC retention time of 753 s.

`Cc1ccccc1NS(=O)(=O)c1ccc(-c2nnc(C3CCC3)o2)o1` displayed an RP-LC retention time of 909 s.

In turn, `O=C(Cc1cc(-c2ccc(Cl)cc2)on1)NCCCn1ccnc1` registered an RP-LC retention time of 582 s.

For the compound `Cc1ccc(-c2cn3c(CC(=O)N4c5ccccc5CC4C)csc3n2)cc1C` (stereo not given), the RP-LC retention time worked out at 965 s.

`O=C(Cc1cccs1)Nc1onc2c1CCCC2` registered an RP-LC retention time of 730 s.

On to `Cc1cccc(OCC(=O)N2CCN(S(=O)(=O)c3c(C)nn(C(C)C)c3C)CC2)c1`, for which the RP-LC retention time amounted to 904 s.
